Data: patent publication US20090232771A1, “Method of controlling cell functions” (Takeda Pharmaceutical Company Limited, priority 2004, published 2009)

Legend:
[1] = test system: human mesenchymal stem cells; experiment: Differentiation of human mesenchymal stem cells into adipocytes, Oil Red O staining of accumulated intracellular lipids; assay type: cell-based; details: cholecystokinin 100 nM in differentiation induction medium; compared to cholecystokinin-free control; FIG. 1
Experimental: Human mesenchymal stem cells were incubated in a 24-well culture plate until the cells became confluent. Then, the medium was exchanged with a differentiation induction medium prepared by adding cholecystokinin (100 nM) to high-glucose DMEM medium supplemented with insulin, dexamethasone, isobutylmethylxanthine, indomethacin, antibiotic and 10% fetal bovine serum, and incubation was continued for 3 days. For control, a cholecystokinin-free differentiation induction medium was used. After incubation was conducted for 3 days in a high-glucose DMEM medium (adipocyte maintenance medium) supplemented only with insulin, antibiotic and 10% fetal bovine serum, the same treatments (the induction and the maintenance, respectively, for 3 days) were repeated. Accumulated intracellular lipids were visualized by staining with Oil Red 0 dye.

[2] = test system: human mesenchymal stem cells; experiment: Osteoblast differentiation induction from human mesenchymal stem cells, accumulated calcium level per well (Calcium C-Test); assay type: cell-based; details: oncostatin M added (10 ng/ml); irrespective of presence or absence of FBS; compared to 10% FBS-containing differentiation medium without oncostatin M; FIG. 2
Experimental: Human mesenchymal stem cells were purchased from Cambrex, Inc. Dulbecco's Modified Eagle Medium (DMEM, Invitrogen) containing 1.0 g/l of glucose and supplemented with 10% fetal bovine serum (Stem Cell Technologies), 2 mM L-glutamine (Invitrogen), 100 U/ml penicillin and 100 μg/ml streptomycin was used as a maintenance medium. The maintenance medium supplemented with 0.1 μM dexamethasone, 0.05 mM ascorbic acid and 10 mM β-glycerophosphate (=10% FBS-containing differentiation medium) or fetal bovine serum-free maintenance medium supplemented with the three components above was used as a differentiation medium (=serum-free differentiation medium). […] Subsequently, the medium was exchanged every 4 days, and the accumulated calcium level per well was quantified on day 10 of the incubation (Calcium C-Test, Wako Pure Chemical).

## cholecystokinin (DYMGWMDF) [ligand of the cholecystokinin receptor]
[1]
  lipid accumulation (accumulated intracellular lipids, Oil Red O staining) compared to control: lipid accumulation is enhanced

B1: oncostatin M (protein, UniProt P13725 26-221, looked up)
Oncostatin-M: AAIGSCSKEYRVLLGQLQKQTDLMQDTSRLLDPYIRIQGLDVPKLREHCRERPGAFPSEETLRGLGRRGFLQTLNATLGCVLHRLADLEQRLPKAQDLERSGLNIEDLEKLQMARPNILGLRNNIYCMAQLLDNSDTAEPTKAGRGASQPPTPTPASDAFQRKLEGCRFLHGYHRFMHSVGRVFSKWGESPNRSRR
notes: differentiation induction factor for osteoblasts from human mesenchymal stem cells in serum-free medium
[2]
  accumulation of calcium per well on day 10 of the incubation: marked accumulation of calcium was observed
